From US20240279214A1, “ALPHA4 BETA7 INEGRIN ANTAGONISTS AND USES THEREOF” (XinThera, Inc., priority 2022, published 2024) come the findings set out here.

The structures appear in SMILES notation. pEC50: −log10 of the molar value. A value given as a limit tells only on which side of the number the result lay.

In this test the target is T1, a4b7 integrin interaction with MadCAM-1 (Homo sapiens, UniProt P13612+P26010).
T1 construct: capture of a4b7 integrin expressing cells, RPMI8866; endogenous in cells; host or cells: RPMI8866
T1 sequence (P13612 34-1032): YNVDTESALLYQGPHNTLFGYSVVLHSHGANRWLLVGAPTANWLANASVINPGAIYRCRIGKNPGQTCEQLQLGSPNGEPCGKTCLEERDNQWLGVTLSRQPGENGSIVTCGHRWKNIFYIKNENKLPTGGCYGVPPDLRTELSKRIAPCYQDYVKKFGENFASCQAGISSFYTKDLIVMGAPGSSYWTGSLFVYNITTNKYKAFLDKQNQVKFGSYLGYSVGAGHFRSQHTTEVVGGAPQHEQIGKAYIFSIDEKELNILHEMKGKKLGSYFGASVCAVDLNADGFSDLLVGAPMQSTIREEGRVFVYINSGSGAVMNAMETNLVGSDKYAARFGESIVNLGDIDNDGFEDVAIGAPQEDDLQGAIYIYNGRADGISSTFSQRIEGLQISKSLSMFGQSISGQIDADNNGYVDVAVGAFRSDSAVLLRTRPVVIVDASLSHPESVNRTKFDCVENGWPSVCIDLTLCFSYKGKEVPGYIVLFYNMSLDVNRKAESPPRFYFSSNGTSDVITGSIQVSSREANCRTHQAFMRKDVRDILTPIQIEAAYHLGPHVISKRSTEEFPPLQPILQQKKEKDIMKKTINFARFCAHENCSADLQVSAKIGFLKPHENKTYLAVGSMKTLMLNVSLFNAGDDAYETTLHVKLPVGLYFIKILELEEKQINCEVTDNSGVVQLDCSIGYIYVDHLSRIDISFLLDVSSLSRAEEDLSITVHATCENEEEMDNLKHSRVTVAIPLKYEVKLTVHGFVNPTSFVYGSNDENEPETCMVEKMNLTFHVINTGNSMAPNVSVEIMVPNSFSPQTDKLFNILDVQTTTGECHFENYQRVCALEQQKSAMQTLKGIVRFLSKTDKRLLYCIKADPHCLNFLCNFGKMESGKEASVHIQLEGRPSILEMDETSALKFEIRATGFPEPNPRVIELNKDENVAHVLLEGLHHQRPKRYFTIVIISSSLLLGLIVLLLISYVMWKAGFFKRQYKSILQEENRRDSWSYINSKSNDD
T1 sequence (P26010 20-798): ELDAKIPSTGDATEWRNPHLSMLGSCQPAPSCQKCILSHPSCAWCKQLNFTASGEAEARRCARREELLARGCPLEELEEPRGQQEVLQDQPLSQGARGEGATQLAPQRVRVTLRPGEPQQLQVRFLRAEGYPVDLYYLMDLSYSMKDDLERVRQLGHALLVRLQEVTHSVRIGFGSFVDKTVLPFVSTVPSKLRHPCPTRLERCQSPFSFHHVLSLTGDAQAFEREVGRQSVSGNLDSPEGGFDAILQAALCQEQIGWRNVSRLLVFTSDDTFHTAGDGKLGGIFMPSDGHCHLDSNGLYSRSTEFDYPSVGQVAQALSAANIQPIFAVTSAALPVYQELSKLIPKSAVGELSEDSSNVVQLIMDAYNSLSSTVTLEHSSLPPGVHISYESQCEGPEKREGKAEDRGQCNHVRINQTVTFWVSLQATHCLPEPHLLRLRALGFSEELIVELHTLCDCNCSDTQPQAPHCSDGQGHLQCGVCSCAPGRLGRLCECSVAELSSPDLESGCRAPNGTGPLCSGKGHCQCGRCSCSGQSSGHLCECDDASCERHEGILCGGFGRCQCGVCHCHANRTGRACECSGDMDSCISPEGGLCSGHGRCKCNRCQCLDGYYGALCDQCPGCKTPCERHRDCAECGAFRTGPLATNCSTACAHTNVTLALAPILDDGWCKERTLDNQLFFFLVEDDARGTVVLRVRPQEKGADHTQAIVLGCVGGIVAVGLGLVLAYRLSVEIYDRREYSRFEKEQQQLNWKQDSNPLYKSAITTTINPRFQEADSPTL
The test is described as follows: a4b7 Cell Capture Assay (RPMI8866 cells on MAdCAM-1 Fc coated plates). It counts as cell-based. The following applies: 50% human serum, 1 mM MgCl2, 1 hour incubation, CellTiter-Glo luminescence, read-out: a4B7 cell capture assay RMPI8866-MadCAM EC50. The method in brief: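 RPMI8866 cells (1.0×10^6 cells/mL) in 1 mM MgCl2, 25 mM HEPES, 50% human serum were added to plates coated with human MAdCAM-1–IgG1 Fc (1.0 μg/mL) and exposed to compound (9-point, 0.08–1000 nM, 0.1% DMSO) for 1 h at 37 °C. Bound cells were read by CellTiter-Glo luminescence. IC50 came from 4-parameter fit of normalized % inhibition.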
For `Cc1cc2cc(c1F)[C@H](CC(=O)O)NC(=O)[C@@H](n1ccc(C(F)(F)F)c(Cl)c1=O)c1cc(ccc1F)COc1cccc(C)c1-2` (relative stereo) [Example 79, [(15R*,18S)-15-[3-chloro-2-oxo-4-(trifluoromethyl)pyridin-1-yl]-13,20-difluoro-3,21-dimethyl-16-oxo-8-oxa-17-azatetracyclo[17.3.1.1^{10,14}.0^{2,7}]tetracosa-1(23),2(7),3,5,10,12,14(24),19,21-nonaen-18-yl]acetic acid], the negative-log EC50 (pEC50) is less than 7.00.
Take `Cc1cc2cc(c1F)[C@H](CC(=O)O)NC(=O)[C@@H](n1cc(CCCN3CCC3)c(C(F)(F)F)cc1=O)c1cc(ccc1F)Oc1cccc(C)c1-2` (single isomer, unassigned) [Example 21]: the pEC50 was 10.10.
For the compound `COC1CN(c2cc(C)c3c(c2)Oc2ccc(F)c(c2)[C@H](n2cc(CCN4CC(F)C4)c(C(F)(F)F)cc2=O)C(=O)N[C@@H](CC(=O)O)c2cc-3cc(C)c2F)C1` (single isomer, unassigned) [Example 41], the pEC50 is 7.68.
With `Cc1cc2cc(c1F)[C@H](CC(=O)O)NC(=O)[C@@H](n1ccc(C(F)(F)F)cc1=O)c1cc(ccc1F)Oc1cccc(C)c1-2` (single isomer, unassigned) [Example 42], the pEC50 was 7.89.
Take `Cc1cc2cc(c1F)[C@H](CC(=O)O)NC(=O)[C@@H](n1cc(CCN3CC(F)C3)c(C(F)(F)F)cc1=O)c1cc(ccc1F)Oc1nn(C)cc1-2` (single isomer, unassigned) [Example 43]: the pEC50 was 6.32.
As for `Cc1cc2cc(c1F)[C@H](CC(=O)O)NC(=O)[C@@H](n1ccc(C(F)(F)F)cc1=O)c1cc(ccc1F)COc1cccc(C)c1-2` (single isomer, unassigned) [Example 44], the pEC50 was 6.80.
In the case of `Cc1cc2cc(c1F)[C@H](CC(=O)O)NC(=O)[C@@H](n1cc(CCN3CC(F)(F)C3)c(C(F)(F)F)cc1=O)c1cc(ccc1F)Oc1cccc(C)c1-2` (single isomer, unassigned) [Example 45] it was 8.74; in that of `Cc1cc2cc(c1F)[C@H](CC(=O)O)NC(=O)[C@@H](n1cc(CCN3CC(F)C3)c(C(F)(F)F)cc1=O)c1cc(ccc1F)Oc1cc(C#N)cc(C)c1-2` (single isomer, unassigned) [Example 46], 8.80.
`Cc1cc2cc(c1F)[C@H](CC(=O)O)NC(=O)[C@@H](n1cc(CCN3CC(F)C3)c(C(F)(F)F)cc1=O)c1cc(ccc1F)COc1cc(Cl)cc(C)c1-2` (single isomer, unassigned) [Example 47]: the pEC50 is 7.38.
With `Cc1cc2cc(c1F)[C@H](CC(=O)O)NC(=O)[C@@H](n1cc(CCN3CC(F)C3)c(C(F)(F)F)cc1=O)c1cc(ccc1F)Oc1cc(C(C)(C)O)cc(C)c1-2` (single isomer, unassigned) [Example 48], the pEC50 was 9.30.
As for `Cc1cc2cc(c1F)[C@H](CC(=O)O)NC(=O)[C@@H](n1cc(CCN3CC(F)C3)c(C(F)(F)F)cc1=O)c1cc(cc(Cl)c1F)COc1cccc(C)c1-2` (single isomer, unassigned) [Example 49], the pEC50 was 8.31.
Consider `Cc1cc2cc(c1F)[C@H](CC(=O)O)NC(=O)[C@@H](n1cc(CCN3CC(F)C3)c(C(F)(F)F)cc1=O)c1cc(ccc1F)COc1ccc(F)cc1-2` (single isomer, unassigned) [Example 50], for which the pEC50 is less than 7.00.
As for `Cc1cc2cc(c1F)[C@H](CC(=O)O)NC(=O)[C@@H](n1cc(CCN3CC(F)C3)c(C(F)(F)F)cc1=O)c1cc(ccc1F)Oc1ccc(F)cc1-2` (single isomer, unassigned) [Example 52], the pEC50 is 6.74.
Regarding `Cc1cc2cc(c1F)[C@H](CC(=O)O)NC(=O)[C@@H](n1cc(CCN3CC(F)(F)C3)c(C(F)(F)F)cc1=O)c1cc(ccc1F)COc1cccc(C)c1-2` (single isomer, unassigned) [Example 53], the pEC50 was 7.96.
Under `Cc1cc2cc(c1F)[C@H](CC(=O)O)NC(=O)[C@@H](n1cc(CCN3CC(F)C3)c(C(F)(F)F)cc1=O)c1cc(ccc1F)COc1cc(C#N)cc(C)c1-2` (single isomer, unassigned) [Example 54] stands 7.57; under `Cc1cc2cc(c1F)[C@H](CC(=O)O)NC(=O)[C@@H](n1cc(CCN3CC(F)C3)c(C(F)(F)F)cc1=O)c1cc(ccc1F)Oc1cc(C3COC3)cc(C)c1-2` (single isomer, unassigned) [Example 57], 8.59; under `Cc1cc2cc(c1F)[C@H](CC(=O)O)NC(=O)[C@@H](n1cc(CCN3CC(F)C3)c(C(F)(F)F)cc1=O)c1cc(ccc1Cl)COc1cccc(C)c1-2` (single isomer, unassigned) [Example 58], 8.15.
In the case of `Cc1cc2cc(c1F)[C@H](CC(=O)O)NC(=O)[C@@H](n1cc(CCN3CC(F)C3)c(C(F)(F)F)cc1=O)c1cc(ccc1F)Oc1nn(CC3CC3)cc1-2` (single isomer, unassigned) [Example 60], the pEC50 was 6.42.
Turning to `Cc1cc2cc(c1F)[C@H](CC(=O)O)NC(=O)[C@@H](n1cc(CCN3CC(F)C3)c(C(F)(F)F)cc1=O)c1cc(ccc1F)COc1ccc(F)c(C)c1-2` (single isomer, unassigned) [Example 61], the pEC50 was 7.38.
With `Cc1cc2cc(c1F)[C@H](CC(=O)O)NC(=O)[C@@H](n1cc(CCN3CCC(F)(F)CC3)c(C(F)(F)F)cc1=O)c1cc(ccc1F)COc1cccc(C)c1-2` (single isomer, unassigned) [Example 62], the pEC50 is 7.48.
As for `Cc1cc2cc(c1F)[C@H](CC(=O)O)NC(=O)[C@@H](n1cc(CCN3CCC(F)(F)CC3)c(C(F)(F)F)cc1=O)c1cc(ccc1F)Oc1cccc(C)c1-2` (single isomer, unassigned) [Example 63], the pEC50 is 8.00.
On to `Cc1cc2cc(c1F)[C@H](CC(=O)O)NC(=O)[C@@H](n1cc(CCN3CC(F)C3)c(C(F)(F)F)cc1=O)c1cc(ccc1F)Oc1cc(C(F)(F)F)cc(C)c1-2` (single isomer, unassigned) [Example 64], for which the negative logarithm of the EC50 (pEC50) was 8.19.
Under `Cc1cc2cc(c1F)[C@H](CC(=O)O)NC(=O)[C@@H](n1cc(CCN3CC(F)C3)cc(C)c1=O)c1cc(ccc1F)Oc1cccc(C)c1-2` (single isomer, unassigned) [Example 66] stands 9.40; under `Cc1cccc2c1-c1cc(c(F)c(C(F)(F)F)c1)[C@H](CC(=O)O)NC(=O)[C@@H](n1c(=O)c3ccncc3n(C)c1=O)c1cc(ccc1F)CO2` (single isomer, unassigned) [Example 67], 6.72.
Take `Cc1cc2cc(c1F)[C@H](CC(=O)O)NC(=O)[C@@H](n1c(=O)c3ccncc3n(C)c1=O)c1cc(ccc1F)Oc1cccc(C)c1-2` (single isomer, unassigned) [Example 69]: the pEC50 is 9.42.
Take `Cc1cc2cc(c1F)[C@H](CC(=O)O)NC(=O)[C@@H](n1cc(CCN3CC(F)C3)c(C(F)(F)F)cc1=O)c1cc(ccc1F)COc1nn(CC3CC3)cc1-2` (single isomer, unassigned) [Example 70]: the pEC50 was less than 7.00.
Take `Cc1ccc2cc1[C@H](n1cc(CCN3CC(F)C3)c(C(F)(F)F)cc1=O)C(=O)N[C@@H](CC(=O)O)c1cc(cc(C)c1F)-c1c(C)cccc1O2` (single isomer, unassigned) [Example 71]: the pEC50 is 8.46.
